In patent US20100143265A1, “SYSTEM AND METHOD FOR THE DELIVERY OF A SANITIZING FOAM” (GREEN SOURCE AUTOMATED, LLC, priority 2008, published 2010):

Test: Gas solubility in water / dip solution
Assay type: physicochemical
Conditions: standard room temperature and 100 psi pressure
Description: Carbon dioxide (CO2) is soluble in water up to 1.45 g/L at 25° C. and 100 kPa. The amount of CO2 that can be dissolved into the dip solution is dependent on the temperature and pressure of the solution. The lower the temperature of the solution the less pressure that is required to saturate the solution with CO2. Conversely, the higher the temperature of the dip solution the more pressure that is required to saturate the solution with CO2.
The system (FIG. 3) was used with nitrous oxide as the propellant/diffusion gas. In an embodiment of the invention, nitrous oxide (N2O) can be used as a propellant/diffusion. N2O is partially soluble in water, but is almost completely soluble in fats and oils (the skin conditioner provided in the cow dip). Under standard room temperature and 100 psi pressure, approximately four volumes of N2O can be dissolved in one volume of the dip solution. The resulting nitrous oxide foam expands to approximately 6 mm in diameter, where the individual bubbles in the foam vary in size from approximately 1 micron to approximately 10 microns. After coalescing, the remaining liquid dries on the teat. It is noted that the amount of N2O that can be dissolved in one volume of dip solution will increase if more conditioners (containing one or more of fats, oils, fatty acids and triglycerides) are used since N2O is almost completely soluble in fats and oils. […]

SMILES | volumes dissolved (gas and dip solution)
O=C=O [CO2, Carbon dioxide] | approximately 4.5 volumes
[N-]=[N+]=O [Example N2O, nitrous oxide] | approximately four
